Results: publication PMC11474028, “Lipopeptide antibiotics disrupt interactions of undecaprenyl phosphate with UptA” (Proceedings of the National Academy of Sciences of the …, 2024)
“Also recorded” adds a separate entry of the source.

How the values were obtained:
[1] = test system: UptA R118A/R119A; test: Native MS of C55-P binding to UptA double mutant R118A/R119A; set-up: species or system Bacillus subtilis; conditions: 5 µM protein, 10 µM C55-P, pH 8.02, 0.05% LDAO, 200 mM ammonium acetate, 100 V; mean of three biological replicates
[2] = target: UptA (Bacillus subtilis, UniProt O31823); test: Native MS competition of C55-P and phospholipids for UptA binding; conditions: 4 µM UptA and 10 µM DOPG or DOPE, increasing C55-P up to 20 µM, on ice 15 min
UptA, sequence (O31823 whole entry): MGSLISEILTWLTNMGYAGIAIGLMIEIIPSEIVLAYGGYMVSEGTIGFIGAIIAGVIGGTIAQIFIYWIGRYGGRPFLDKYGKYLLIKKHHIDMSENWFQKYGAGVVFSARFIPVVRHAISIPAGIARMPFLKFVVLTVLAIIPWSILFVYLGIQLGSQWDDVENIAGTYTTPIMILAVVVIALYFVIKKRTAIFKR
Method: To investigate whether or not C55-P can outcompete phospholipids in binding to UptA, we incubated solutions containing UptA-DOPG with increasing concentrations of C55-P. Spectra were recorded after aliquots of the solution were equilibrated on ice for 15 min. […] We therefore hypothesised that phospholipids should be unable to outcompete C55-P bound to UptA. To test this hypothesis, we incubated UptA with C55-P and then equilibrated aliquots with an increasing concentration of DOPG. […]
The chloroform layer containing the total lipids was recovered into a clean glass vial, and the organic solvent was evaporated in a SpeedVac for 16 h. Lipid film was resuspended 200 mM ammonium acetate, 0.05% LDAO (pH 8.0) to ~0.5 mg/mL for the binding experiments.
Sample preparation for native MS
Before measurements, the protein was buffer-exchanged into 0.05% LDAO, 200 mM ammonium acetate (“MS buffer”) at the desired pH using a centrifugal buffer exchange device (Micro Bio -Spin 6, Bio-Rad). Stock solutions of lipids were prepared from chloroform/methanol solution by evaporating aliquots of known volume in a SpeedVac. After drying, the lipid films were weighed and resuspended to a final concentration of 0.5 mM in 200 mM ammonium acetate (pH8) and 0.05% LDAO by vertexing. Stock solutions of 0.5 mM amphomycin, aspartocin D, daptomycin and bacitracin, were made in the same buffer. All experiments were repeated three times from newly prepared stock solutions.
About 3 μL protein aliquot was transferred into a gold-coated borosilicate capillary (Harvard Apparatus) and was mounted on the nano ESI source of a Q-Exactive hybrid quadrupole-Orbitrap mass spectrometer (Thermo Fisher Scientific, Bremen, Germany). The instrument settings were 1.2 kV capillary voltage, S-lens RF 200%, argon UHV pressure 3.3 × 10−10 mbar, the capillary temperature was set to 200 °C, and resolution of the instrument was set to 17,500 at a transie nt time of 64 ms. […] The resulting fragments were detected in the Orbitrap (R = 280,000 @ m/z 200), averaging ~500 transients to maximise the signal-to-noise ratio. […]

## CC(C)=CCC/C(C)=C/CC/C(C)=C/CC/C(C)=C\CC/C(C)=C\CC/C(C)=C\CC/C(C)=C\CC/C(C)=C\CC/C(C)=C\CC/C(C)=C\CC/C(C)=C\COP(=O)(O)O [C55-P, undecaprenyl phosphate]
[1]
  reduction in C55-P binding, R118A/R119A: 46%
[2]
  displacement of phospholipid from UptA by C55-P (in words): C55-P has displaced most of DOPG from UptA; also recorded: C55-P effectively outcompete DOPE for UptA binding
